According to patent US6486190B1, “5-(2-imidazolinylamino)-benzimidazole derivatives, their preparation and their use as α-adrenoceptor agonists with improved metabolic stability” (The Procter & Gamble Company, priority 1997, dated 2002):
Where two headings read alike, the source gives them in different places.

Legend:
alpha-2 adrenoceptors = test: alpha-2 adrenergic activity and selectivity (receptor binding affinities and in vitro functional potencies); assay type: biochemical
Experimental: (§1) The pharmacological activity and selectivity of these compounds can be determined using published test procedures. […] (See, e.g., The Alpha-2 Adrenergic Receptors, L. E. Limbird, ed., Humana Press, Clifton, N.J.) The following in vivo assays are typically conducted in rodents or other species. Central nervous system activity is determined by measuring locomotor activity as an index of sedation. (See, e.g., Spyraki, C. & H. Fibiger, “Clonidine-induced Sedation in Rats: Evidence for Mediation by Postsynaptic Alpha-2 Adrenoreceptors”, Journal of Neural Transmission, Vol. 54 (1982), pp. 153-163). Nasal decongestant activity is measured using rhinomanometry as an estimate of nasal airway resistance. […] Antiglaucoma activity is determined by measuring intraocular pressure. […] Antidiarrheal activity is determined by measuring the ability of the compounds to inhibit prostaglandin-induced diarrhea. […] Efficacy in treating irritable bowel syndrome is determined by measuring the ability of compounds to reduce the stress-induced increase in fecal output. […] Antiasthma activity is determined by measuring the effect of the compound on bronchoconstriction associated with pulmonary challenges such as inhaled antigens. […] Activity in cough is determined by measuring the number and latency of the cough response to respiratory challenges such as inhaled citric acid. […]

[1] = pharmacokinetic studies in primates: parent and N-methyl metabolite in urine after oral dosing; assay type: in vivo, cynomolgus monkeys
Experimental: For the pharmacokinetic studies, the compounds are administered orally to cynomolgus monkeys and measurements of administered benzimidazole compounds and corresponding N-methyl metabolites are made using 100 μL aliquots of urine collected over various time-periods post-dose. Typically, a chemical homolog or stable-isotope-labeled internal standard is added to each sample and then diluted 100× in water. Ten μL of prepared sample is then analyzed by gradient HPLC, with tandem mass spectrometry detection. Single ion reaction monitoring schemes are employed to selectively detect the test compound, its N-methyl metabolite (if present), and the internal standard.

[2] = precision cut liver slice assay (metabolic stability, N-methylation); assay type: in vitro ADME; details: for metabolic N-methylation (N-methyl metabolites): in these assays: precision cut liver slice assay and pharmacokinetic studies in primates
Experimental: Metabolic stability of the compounds described above is evaluated in vitro in a precision cut liver slice assay and in vivo in pharmacokinetic studies in primates. The precision cut liver slice assay is a well recognized, validated in vitro model to study xenobiotic metabolism in animal species and humans. (See Ekins, S. “Past, present, and future applications of precision-cut liver slices for in vitro xenobiotic metabolism.” (Department of Medicine and Therapeutics, University of Aberdeen, UK.) Drug-Metab-Rev. (November, 1996) Vol. 28, No. 4: pp. 591-623). […] The assay provides data on the biotransformations taking place within intact hepatocytes of the species of interest. Thus the full compliment of phase I and phase II metabolic enzymes are available to metabolize the drug as is the case in vivo.

central nervous system = central nervous system activity (locomotor activity as an index of sedation); set-up: species or system rodents; details: in vivo
Experimental: as §1

SMILES	alpha-2 adrenergic activity (pharmacological profile) (alpha-2 adrenoceptors)	N-methylation in primates [1]	metabolic N-methylation (N-methyl metabolites) [2]	metabolism / methyl metabolite formation ([2]; precision cut liver slice assay)	CNS activity (central nervous system)	metabolism / methyl metabolite formation [2]
CCc1c(NC2=NCCN2)ccc2[nH]cnc12 [4-ethyl-5-(2-imidazolinylamino)benzimidazole]	selective alpha-2 adrenergic agonist	rapidly and extensively N-methylated	N-methyl metabolites were found	–	–	–
Cc1c(NC2=NCCN2)ccc2[nH]cnc12 [5-(2-Imidazolinylamino)-4-methylbenzimidazole]	very potent and selective alpha-2 adrenergic agonists	–	N-methyl metabolites were found	rapidly metabolized	very low CNS activity	–
Cc1c(N=C2NCCN2)cc(C#N)c2[nH]cnc12 [Example 1, 7-Cyano-5-(2-imidazolinylamino)-4-methylbenzimidazole]	–	–	–	–	very low CNS activity	no evidence of the methyl metabolite
